Assay results taken from patent US20250108062A1, “VITAMIN NANOCLUSTERS AS THERAPEUTIC AND NUTRACEUTIC AGENTS AND CARRIERS” (FONDAZIONE ISTITUTO ITALIANO DI TECNOLOGIA, priority 2022, published 2025).

Test system: Bone Marrow Derived Monocytes (BMDM)
Assay: MTT cell viability / toxicity on BMDMs
Conditions: 24, 48, 72 h, all tested concentrations
Method: After 24, 48, or 72 h of incubation, the culture medium was removed, a MTT solution was added to each well according to the manufacturer's instruction. The absorbance of formazan crystals dissolved in EtOH was quantified using a microplate spectrophotometer at a wavelength of 570 nm, using 650 nm as the reference wavelength (Tecan, Mannedorf, Swiss). The percentage of cell viability was assessed according to the following equation:
where, Abst was the absorbance of treated cells and Abs, was the absorbance of control (untreated) cells.

In the case of C=C1CC[C@H](O)C/C1=C/C=C1\CCC[C@]2(C)[C@@H]([C@H](C)CCCC(C)C)CC[C@@H]12 [free Vitamin D3, Vitamin D3], the “cytotoxicity (MTT cell viability)” value was “do not induce a significant cytotoxicity”.
